The text below walks through data of patent US20080145313A1, “Compositions and Methods for the Treatment and Prevention of Neoplastic Disorders” (Genesis Research & Development Corporation Limited, priority 2006, published 2008).

One data set relates to YBX1 (p47) and p37. Put plainly: YBX1 protein level by Western blotting in A549 cells. The format is cell-based, human. Conditions: 10 nM siRNA; 24 h post-transfection; compared with control siRNA. How it is done: Cell lysates were prepared from A549 cells 24 h post-transfection with 10 nM YBX1-specific siRNA (SEQ ID NO: 4982 (DNA), and SEQ ID NO: 5277 (RNA) was labeled 94; SEQ ID NO: 4983 (DNA), and SEQ ID NO: 5278 (RNA) was labeled 95) or control siRNA (SEQ ID NO: 4804 (DNA), and SEQ ID NO: 5301 (RNA); labeled 81). Following Western blotting onto Immobilon-P PVDF filer (Millipore, Bedford Mass.), membranes were probed with a goat anti-human polyclonal antibody specific for YBX1 (AbCam plc, Cambridge, UK), at a concentration of […]. HRP-conjugated donkey anti-goat IgG ([…]; Santa Cruz) was used as a secondary antibody, and signal was detected with an ECL Plus Western blotting Detection System (GE Healthcare, UK) using a Typhoon Scanner (Molecular Dynamics, GE Healthcare, UK).
For orientation: Immunoblotting shows a protein as a band on a membrane.

A further data set relates to MCF-7 cells. Description: Growth inhibition of siRNA-transfected MCF-7 cells, SYBR Green I DNA content. The conditions noted are these: 10 nM siRNA; standardized against control siRNA. The format is cell-based, human. How it is done:
A549 cells (human lung cancer cell line; ATCC No. CCL-185), SK-MeI-5 cells (human melanoma cell line; ATCC No. HTB-70), MCF-7 cells (human adenocarcinoma cell line; ATCC No. HTB-22), HCT-116 cells (colorectal carcinoma; ATCC CCL-247) and HCT-116 p53 null cells (derived from ATCC No. CCL-247; Bunz et al., Science 282:1497-1501, 1998) were cultured in RPMI 1640 medium with 10% v/v heat-inactivated fetal calf serum (FCS). Cells were seeded at a density of 5×10^4 cells/cm^2 in multi-well tissue culture plates. […] The cellular DNA content was measured using a SYBR Green I-based fluorometric assay at 24, 48, 72 and 96 hours after transfection (120 hours for the MCF-7 cells), as follows. […]
The following day, cell lysates were mixed thoroughly, and DNA fluorescence was measured with a Wallac Victor^2 plate reader (Turku, Finland) set at an excitation frequency of 485 nm and measuring emission at 535 nm.
siRNA-mediated RNAi was also determined on a panel of different cell lines. A549, SK-MeI-5, wt HCT-116, HCT-116−/−p53 and MCF-7 cells were transfected with 10 nM siRNAs targeting YBX-1 and growth inhibition determined as described above. […]

In the case of “SEQ ID NO: 4982: siRNA targeting YBX1 (chain 1 TTTGCTGGTAATTGCGTGGAGGACC; chain 2 UUUGCUGGUAAUUGCGUGGAGGACC; chemistry not given here; one strand in two spellings)”, the “YBX1 (p47) and p37 protein levels” value in the data set with YBX1 (p47) and p37 was “reduction in YBX1 (p47) and p37 protein levels”. In addition, in the data set on MCF-7 cells, the “growth inhibition, MCF7 cells” value is on record as “++ (At least 50% inhibition)”.

In the case of “SEQ ID NO: 4983: siRNA targeting YBX1 (chain 1 TACTGTGGTCGACGCCCATAGGGTC; chain 2 UACUGUGGUCGACGCCCAUAGGGUC; chemistry not given here; one strand in two spellings)”, in the data set with YBX1 (p47) and p37, the “YBX1 (p47) and p37 protein levels” value is “reduction in YBX1 (p47) and p37 protein levels”.
